Experimental findings from US11091479B2, “Triazolopyridin-3-ones or their salts and pharmaceutical compositions comprising the same” (YUHAN CORPORATION, priority 2018, dated 2021) are described below.

What all share (format): biochemical
One test deals with T1, recombinant human VAP-1 (Homo sapiens, UniProt Q16853).
T1 construct: purchased R&D systems
T1 sequence (Q16853 1-763): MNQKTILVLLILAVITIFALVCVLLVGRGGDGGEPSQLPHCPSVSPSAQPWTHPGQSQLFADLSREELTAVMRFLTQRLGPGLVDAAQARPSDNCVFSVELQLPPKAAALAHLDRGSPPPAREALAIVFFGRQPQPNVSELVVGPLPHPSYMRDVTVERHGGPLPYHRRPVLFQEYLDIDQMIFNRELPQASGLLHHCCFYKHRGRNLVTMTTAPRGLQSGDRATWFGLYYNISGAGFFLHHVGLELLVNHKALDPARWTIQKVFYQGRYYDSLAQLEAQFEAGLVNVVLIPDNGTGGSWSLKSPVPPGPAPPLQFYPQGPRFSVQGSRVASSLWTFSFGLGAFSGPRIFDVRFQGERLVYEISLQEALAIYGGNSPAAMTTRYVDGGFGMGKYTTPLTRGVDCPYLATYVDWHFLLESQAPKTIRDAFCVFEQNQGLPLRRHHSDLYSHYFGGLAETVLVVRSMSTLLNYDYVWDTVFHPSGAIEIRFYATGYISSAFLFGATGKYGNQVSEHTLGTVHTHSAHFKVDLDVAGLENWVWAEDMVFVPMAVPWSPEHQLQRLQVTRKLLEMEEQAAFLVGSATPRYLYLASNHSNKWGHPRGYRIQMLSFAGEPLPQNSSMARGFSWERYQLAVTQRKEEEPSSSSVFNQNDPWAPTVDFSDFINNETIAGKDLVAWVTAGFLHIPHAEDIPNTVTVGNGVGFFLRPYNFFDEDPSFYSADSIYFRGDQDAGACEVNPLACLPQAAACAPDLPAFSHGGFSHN
As to the kind of experiment: Activity on recombinant human VAP-1, HRP-coupled Amplex Red hydrogen peroxide assay, benzylamine substrate. To be noted: 30 min incubation at 37° C., 1 mM benzylamine, read-out: Inhibitory Activity (IC50, nM) human VAP-1. Summed up: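 Recombinant human VAP-1 in 50 mM sodium phosphate pH 7.4 preincubated with compound for 30 min at 37 °C, then 1 mM benzylamine, 200 uM Amplex Red and 1 U/mL HRP added. Resorufin fluorescence (ex 544/em 590 nm) followed over 1-2 h; % signal-rate decrease vs DMSO control, 8-point 4-parameter fit for IC50.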

Test [1] addresses T2, recombinant human MAO-A (monoamine oxidase-A) (Homo sapiens, UniProt P21397).
T2 construct: purchased Sigma-Aldrich
T2 sequence (P21397 1-527): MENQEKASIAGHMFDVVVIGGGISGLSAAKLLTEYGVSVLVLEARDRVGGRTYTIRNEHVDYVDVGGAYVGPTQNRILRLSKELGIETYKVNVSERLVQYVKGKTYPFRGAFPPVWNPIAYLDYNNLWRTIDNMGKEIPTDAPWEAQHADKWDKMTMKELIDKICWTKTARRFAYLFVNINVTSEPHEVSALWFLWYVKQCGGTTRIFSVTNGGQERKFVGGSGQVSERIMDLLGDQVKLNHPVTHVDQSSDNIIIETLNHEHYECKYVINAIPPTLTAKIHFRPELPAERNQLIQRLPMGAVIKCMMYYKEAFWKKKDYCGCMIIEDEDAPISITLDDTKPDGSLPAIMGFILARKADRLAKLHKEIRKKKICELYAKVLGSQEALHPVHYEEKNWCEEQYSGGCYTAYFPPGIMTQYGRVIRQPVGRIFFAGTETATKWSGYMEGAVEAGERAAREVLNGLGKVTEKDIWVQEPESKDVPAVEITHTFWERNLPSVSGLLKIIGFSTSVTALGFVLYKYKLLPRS
As to the kind of experiment: Activity on recombinant human MAO-A, method similar to VAP-1 assay, 0.5 mM tyramine substrate. The settings on record: read-out: Inhibitory Activity (IC50, nM) MAO-A. Summed up:
(§1)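 Amplex Red/HRP-coupled H2O2 fluorescence assay run as for VAP-1: enzyme in 50 mM sodium phosphate pH 7.4 preincubated with compound 30 min at 37 °C, then substrate (putrescine for DAO, benzylamine for MAO-B, tyramine for MAO-A) added with 200 uM Amplex Red, 1 U/mL HRP. Signal rate over 1-2 h; IC50 from 4-parameter logistic fit.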

Test [2] addresses T3, recombinant human MAO-B (monoamine oxidase-B) (Homo sapiens, UniProt P27338).
T3 construct: purchased Sigma-Aldrich
T3 sequence (P27338 1-520): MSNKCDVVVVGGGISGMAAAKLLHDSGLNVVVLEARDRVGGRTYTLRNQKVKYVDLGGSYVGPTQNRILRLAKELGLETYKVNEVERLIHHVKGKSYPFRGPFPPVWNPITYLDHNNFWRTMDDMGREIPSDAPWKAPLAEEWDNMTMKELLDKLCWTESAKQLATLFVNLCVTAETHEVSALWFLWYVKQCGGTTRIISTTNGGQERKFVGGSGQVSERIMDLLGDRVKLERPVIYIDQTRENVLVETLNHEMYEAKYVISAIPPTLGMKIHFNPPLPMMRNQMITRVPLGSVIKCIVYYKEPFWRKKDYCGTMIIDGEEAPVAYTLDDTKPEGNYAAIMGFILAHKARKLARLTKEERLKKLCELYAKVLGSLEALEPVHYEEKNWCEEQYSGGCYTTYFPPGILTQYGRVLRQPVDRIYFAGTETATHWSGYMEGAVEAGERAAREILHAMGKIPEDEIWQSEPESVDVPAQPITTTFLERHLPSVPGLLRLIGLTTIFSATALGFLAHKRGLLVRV
Put plainly: Activity on recombinant human MAO-B, method similar to VAP-1 assay, 1 mM benzylamine substrate. To be noted: read-out: Inhibitory Activity (IC50, nM) MAO-B. In outline: as §1

Test [3] has as its target T4, recombinant human DAO (diamine oxidase) (Homo sapiens, UniProt P19801).
T4 construct: purchased R&D systems
T4 sequence (P19801 20-751): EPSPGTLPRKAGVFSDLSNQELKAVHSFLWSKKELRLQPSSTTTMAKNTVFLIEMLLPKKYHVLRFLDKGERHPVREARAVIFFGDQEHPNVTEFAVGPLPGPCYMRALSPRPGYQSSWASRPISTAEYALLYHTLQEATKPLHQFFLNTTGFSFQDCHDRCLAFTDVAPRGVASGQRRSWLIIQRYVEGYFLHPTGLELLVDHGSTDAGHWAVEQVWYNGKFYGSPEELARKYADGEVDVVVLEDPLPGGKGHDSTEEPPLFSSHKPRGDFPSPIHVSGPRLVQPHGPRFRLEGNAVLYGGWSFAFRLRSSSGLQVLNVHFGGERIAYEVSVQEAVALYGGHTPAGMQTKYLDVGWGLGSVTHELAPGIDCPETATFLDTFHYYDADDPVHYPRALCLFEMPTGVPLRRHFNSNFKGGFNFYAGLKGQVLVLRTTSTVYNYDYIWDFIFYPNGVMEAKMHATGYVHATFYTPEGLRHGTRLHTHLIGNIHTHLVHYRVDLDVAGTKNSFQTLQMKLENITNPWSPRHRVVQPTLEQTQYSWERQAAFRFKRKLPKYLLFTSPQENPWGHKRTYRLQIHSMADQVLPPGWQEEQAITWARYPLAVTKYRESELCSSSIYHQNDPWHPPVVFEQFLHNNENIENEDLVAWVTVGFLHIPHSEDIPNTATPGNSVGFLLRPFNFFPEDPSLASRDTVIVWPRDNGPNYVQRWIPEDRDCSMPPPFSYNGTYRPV
Put plainly: Activity on recombinant human DAO, method similar to VAP-1 assay, 1 mM putrescine substrate. To be noted: read-out: Inhibitory Activity (IC50, nM) DAO. In outline:
as §1

Molecules are shown by their SMILES. Structures can show the parent of a compound that is named as a salt. Where only a bound is given, the exact number is not on record here.

For `CS(=O)(=O)c1ccc(-c2ccc3nn(C/C(=C/F)CN)c(=O)n3c2)cc1` [Example 3, 2-[(2E)-2-(aminomethyl)-3-fluoroprop-2-en-1-yl]-6-[4-(methylsulfonyl)phenyl][1,2,4]triazolo[4,3-a]pyridin-3(2H)-one trifluoroacetate], the IC50 at recombinant human VAP-1 is 3.6 nM; in test [1], greater than 100000 nM; in test [2], 231 nM; in test [3] it was less than 100 nM.

Take `NCC(Cn1nc2cc(-c3ccc4c(c3)OCO4)ccn2c1=O)=C(F)F` [Example 52, 2-[2-(aminomethyl)-3,3-difluoro-allyl]-7-(1,3-benzodioxol-5-yl)-[1,2,4]triazolo[4,3-a]pyridin-3-one trifluoroacetate]: the 50% inhibitory concentration (IC50) at recombinant human VAP-1 was 0.3 nM; in test [1], greater than 100000 nM; in test [2], 37 nM; in test [3] it was 160 nM.

Regarding `NCC(Cn1nc2cc(-c3ccc(N4CCNCC4)cc3)ccn2c1=O)=C(F)F` [Example 49, 2-[2-(aminomethyl)-3,3-difluoro-allyl]-7-(4-piperazin-1-ylphenyl)-[1,2,4]triazolo[4,3-a]pyridin-3-one ditrifluoroacetate], the IC50 at recombinant human VAP-1 was 1.6 nM; in test [1], greater than 100000 nM; in test [2], 53000 nM; in test [3], 390 nM.

As for `NC/C(=C\F)Cn1nc2cc(-c3c[nH]c4ncccc34)ccn2c1=O` [Example 35, 2-[(2E)-2-(aminomethyl)-3-fluoroprop-2-en-1-yl]-7-(1H-pyrrolo[2,3-b]pyridin-3-yl)[1,2,4]triazolo[4,3-a]pyridin-3(2H)-one hydrochloride], the half-maximal inhibitory concentration (IC50) on recombinant human VAP-1 was 0.2 nM; in test [1], greater than 100000 nM; in test [2], 24 nM; in test [3], 0.5 nM.

For `NC/C(=C\F)Cn1nc2cc(-c3ccc4c(c3)NC(=O)OC4)ccn2c1=O` [Example 41, 7-[2-[(2E)-2-(aminomethyl)-3-fluoroprop-2-en-1-yl]-3-oxo-2,3-dihydro[1,2,4]triazolo[4,3-a]pyridin-7-yl]-1,4-dihydro-2H-3,1-benzoxazin-2-one hydrochloride], the 50% inhibitory concentration (IC50) on recombinant human VAP-1 came to 0.3 nM; in test [1], 6800 nM; in test [2] it was 730 nM; in test [3], 1.3 nM.

In the case of `NC/C(=C\F)Cn1nc2ccc(-c3ccc(C(F)(F)F)nc3)cn2c1=O` [Example 9, 2-[(2E)-2-(aminomethyl)-3-fluoroprop-2-en-1-yl]-6-[6-(trifluoromethyl)pyridin-3-yl][1,2,4]triazolo[4,3-a]pyridin-3(2H)-one hydrochloride], the IC50 at recombinant human VAP-1 was 12 nM; in test [1], greater than 100000 nM; in test [2] it was 37 nM; in test [3], 0.2 nM.

`NC/C(=C\F)Cn1nc2cc(-c3ccc(C(=O)N4CCOCC4)cc3)ccn2c1=O` [Example 24, 2-[(2E)-2-(aminomethyl)-3-fluoroprop-2-en-1-yl]-7-[4-(morpholin-4-ylcarbonyl)phenyl][1,2,4]triazolo[4,3-a]pyridin-3(2H)-one hydrochloride]: the IC50 was 0.6 nM at recombinant human VAP-1, greater than 100000 nM in test [1], greater than 10000 nM in test [2] and 14 nM in test [3].

`NC/C(=C\F)Cn1nc2cc(-c3ccc4nonc4c3)ccn2c1=O` [Example 38, 2-[(2E)-2-(aminomethyl)-3-fluoroprop-2-en-1-yl]-7-(2,1,3-benzoxadiazol-5-yl)[1,2,4]triazolo[4,3-a]pyridin-3(2H)-one hydrochloride]: the IC50 on recombinant human VAP-1 was 0.2 nM; in test [1] it was 3500 nM; in test [2], less than 10 nM; in test [3], 0.4 nM.

As to `NCC(Cn1nc2cc(C#Cc3ccc4c(c3)NCCO4)ccn2c1=O)=C(F)F` [Example 59, 2-[2-(aminomethyl)-3,3-difluoro-allyl]-7-[2-(3,4-dihydro-2H-1,4-benzoxazin-6-yl)ethynyl]-[1,2,4]triazolo[4,3-a]pyridin-3-one ditrifluoroacetate], the IC50 is 1.8 nM at recombinant human VAP-1, greater than 100000 nM in test [1], 2700 nM in test [2] and 9000 nM in test [3].

Regarding `NC/C(=C\F)Cn1nc2cc(-c3ccc(-c4noc(C5CC5)n4)cc3)ccn2c1=O` [Example 29, 2-[(2E)-2-(aminomethyl)-3-fluoroprop-2-en-1-yl]-7-[4-(5-cyclopropyl-1,2,4-oxadiazol-3-yl)phenyl][1,2,4]triazolo[4,3-a]pyridin-3(2H)-one hydrochloride], the IC50 on recombinant human VAP-1 is 0.4 nM; in test [1], 44000 nM; in test [2] it was 380 nM; in test [3], 4 nM.

Regarding `NCC(Cn1nc2cc(-c3ccc(C(F)(F)F)nc3)ccn2c1=O)=C(F)F` [Example 50, 2-[2-(aminomethyl)-3,3-difluoro-allyl]-7-[6-(trifluoromethyl)-3-pyridyl]-[1,2,4]triazolo[4,3-a]pyridin-3-one trifluoroacetate], the IC50 at recombinant human VAP-1 is 0.2 nM; in test [1] it was greater than 100000 nM; in test [2], 100 nM; in test [3], 3 nM.

Turning to `NC/C(=C\F)Cn1nc2ccc(-c3ccc4c(c3)OCCO4)cn2c1=O` [Example 13, 2-[(2E)-2-(aminomethyl)-3-fluoroprop-2-en-1-yl]-6-(2,3-dihydro-1,4-benzodioxin-6-yl)[1,2,4]triazolo[4,3-a]pyridin-3(2H)-one trifluoroacetate], the half-inhibitory concentration (IC50) on recombinant human VAP-1 is 4.8 nM; in test [1], greater than 100000 nM; in test [2] it was 15 nM; in test [3], less than 100 nM.

One may read the IC50 as the midpoint of a concentration-inhibition curve.
